Experimental data reported in patent publication US11220689B2, “Modulators of telomere disease” (Children's Medical Center Corporation, priority 2015, dated 2022).

Key:
[1] = molecular target: recombinant PAPD5 (Homo sapiens, UniProt Q8NDF8); test: Inhibition of recombinant PAPD5 by aminoglycosides; format: biochemical; conditions: 10 μM each; FIG. 26
Protocol: FIG. 26 is a graph showing inhibition of recombinant PAPD5 by aminoglycosides.
Experiments were performed to determine whether aminoglycosides can be used to inhibit PAPD5. 10 μM each of the following are used, (1) Kanamycin B sulfate; (2) Apramycin sulfate; (3) Spectinomycin dihydrochloride pentahydrate; and (4) Ribostamycin sulfate.

[2] = test system: human PAPD5; test: PAPD5 shRNA knockdown in PARN deficient HEK 293 cells: 3' RACE deep sequencing and Northern blot of TERC; format: cell-based; conditions: Northern blot, normal and PARN deficient HEK 293 cells, FIG. 11G, FIG. 18
Description: short-hairpin RNA (shRNA) constructs. Duplex oligonucleotides encoding shRNA targeting human PAPD5 (ENA accession: FR872509) or luciferase control (Table 13) were cloned into the pLKO.1-puro vector and pLKO.1-blast vectors (Addgene #10878 and #26655). shRNA constructs targeting human PARN (NM_002582) were as described, e.g., in Moon, Diane H., et al. “Poly (A)-specific ribonuclease (PARN) mediates 3 [prime]-end maturation of the telomerase RNA component.” Nature genetics 47.12 (2015): 1482-1488.
Viral vector production and transduction. […]. Lentiviral particles were produced by co-transfection of HEK 293T cells with lentiviral vectors, pCMV_dR8.91 and pCMV_VSV-G. For knockdown and overexpression experiments, HEK 293 cells, fibroblasts and iPSCs were transduced with viral vectors in the presence of protamine sulfate (10 μg/ml) for 8-12 hours. For TERC and DKC1 experiments, transduced HEK 293 cells and fibroblasts were sorted for mCherry or EGFP expression and cultured without further selection. […]
Formaldehyde/agarose gel electrophoresis. […] Quantification was performed using ImageJ. […]
TERC RNA 3′ ends were profiled as described in e.g., Moon, Diane H., et al. “Poly (A)-specific ribonuclease (PARN) mediates 3 [prime]-end maturation of the telomerase RNA component.” Nature genetics 47.12 (2015): 1482-1488. […] Reads mapping to the TERC gene were analyzed using custom developed Perl scripts.

[3] = test system: human TRF4-2; test: Lentiviral shRNA knockdown of TRF4-2 (PAPD5) in fibroblasts and patient-derived cells; format: cell-based
Description: Short-hairpin RNA (shRNA) constructs. Duplex oligonucleotides encoding shRNA targeting human TRF4-2 (ENA accession number: FR872509) and human PARN (NM_002582) or luciferase control (Table 6) were cloned into the pLKO.1-puro vector (Addgene #10878), and pLKO.1-blast vector (Addgene #26655). Lentiviral vector production and transduction of cells.
Lentiviral vectors encoding shRNAs were produced by co-transfection of 293 cells with lentiviral plasmids described above, pCMV_dR8.91 and pCMV_VSV-G, using branched polyethylenimine (Sigma). Supernatants were harvested, filtered and frozen in aliquots on days 3-4 following transfection. For knockdown experiments, cells were transduced with lentivirus and harvested 6 days after selection in puromycin (2 μg/ml for 293 cells; 0.2 μg/ml for iPS cells) or blasticidin (10 μg/ml for 293 cells).

[4] = test system: PAPD5; test: CRISPR/Cas9 genome targeting of PAPD5 in PARN mutant iPSCs, lentiviral gRNA; format: cell-based, human
Protocol: (§1) Experiments were performed to determine the requirement of PARN and PAPD5 for viability and function of human stem cells. CRISPR/Cas9 genome targeting was performed to create biallelic null mutations. Lentiviral vectors containing guide RNAs (gRNAs; Table 15) to PARN or PAPD5 were designed and used to transduce normal (WT) and PARN mutant induced pluripotent stems (iPSCs), and the frequency of insertion/deletions (indels) were assessed. […] Populations of stable lentiviral transduced PARN or PAPD5 targeted iPSCs were subcloned to identify lines with biallelic inactivation of PARN or PAPD5. […] In contrast, iPSCs with indels causing frameshifts in PAPD5 and lacking PAPD5 protein could be isolated (FIG. 23). Inactivation of PAPD5 by CRISPR/Cas9 augmented TERC levels in iPSC clones (FIG. 24).

[5] = test system: human PARN; test: PARN shRNA knockdown in 293 cells: 3' RACE and deep sequencing of TERC 3' ends; format: cell-based; conditions: versus control shRNA, FIG. 8
Protocol: 600 ng of total RNA was ligated to 5 μM of 5′-adenylated, 3′-blocked adapter (Universal miRNA cloning linker, New England Biolabs, Ipswich, Mass.) with 280 units of T4 RNA ligase truncated KQ (New England Biolabs, Ipswich, Mass.), 25% PEG 8000, and 1 μl RNaseOUT (Life Technologies, Carlsbad, Calif.) in a 20 μl reaction at 25 degrees C. for 16-24 hr. After cleanup with RNA Clean and Concentrator columns (Zymo Research, Irvine, Calif.), followed by DNase treatment, cDNA was synthesized with 5 pmol of universal RT primer and SuperScript III. […] PCR products were directly analyzed run on 2.5% agarose gels to visualize mature and extended TERC transcripts, or subject to Qiaquick PCR purification columns (Qiagen, Hilden, Germany) for library preparation for deep sequencing. […]
RACE products were prepared for deep sequencing using the TruSeq Nano DNA LT Library Prep Kit (Illumina, San Diego, Calif.). […] The quality and quantity of each library was determined on an Advanced Analytical Fragment Analyzer. […] The reads were de-multiplexed with CASAVA 1.8.2 and the read 1 and read 2 fastq files for each sample were generated. For data analysis, the Illumina adapter sequence was first removed from the end of each read using Trimmomatic50. […] The joined-reads from each sample were then mapped to the TERC gene (NR_001566; SEQ ID NO: 99) with the Bowtie2 mapper52, and outputted to a SAM file. […]

[6] = test system: PARN; test: CRISPR/Cas9 genome targeting of PARN in normal (WT) iPSCs, lentiviral gRNA; format: cell-based, human
Protocol: as §1

Chain of recombinant PAPD5 (Q8NDF8 whole entry): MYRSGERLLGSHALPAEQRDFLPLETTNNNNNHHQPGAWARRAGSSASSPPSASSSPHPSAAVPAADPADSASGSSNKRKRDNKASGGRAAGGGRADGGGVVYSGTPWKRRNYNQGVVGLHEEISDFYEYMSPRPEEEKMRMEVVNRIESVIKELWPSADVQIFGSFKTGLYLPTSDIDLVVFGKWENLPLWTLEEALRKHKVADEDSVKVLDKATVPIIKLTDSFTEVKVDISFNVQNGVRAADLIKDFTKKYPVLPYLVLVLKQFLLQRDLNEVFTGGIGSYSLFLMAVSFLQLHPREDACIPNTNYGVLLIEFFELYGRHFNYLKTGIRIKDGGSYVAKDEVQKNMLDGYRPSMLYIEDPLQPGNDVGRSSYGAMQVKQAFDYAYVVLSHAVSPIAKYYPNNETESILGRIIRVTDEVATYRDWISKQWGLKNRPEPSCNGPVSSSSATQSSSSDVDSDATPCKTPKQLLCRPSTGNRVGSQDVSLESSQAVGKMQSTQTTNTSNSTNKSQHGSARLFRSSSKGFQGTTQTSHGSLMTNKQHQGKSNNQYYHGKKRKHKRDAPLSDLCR

## Apramycin sulfate
[1]
  inhibition of PAPD5: can inhibit PAPD5

## PAPD5 shRNA1: lentivirus-encoded shRNA targeting human PAPD5, SEQ ID NO: 83 in Table 13 (CCGGCGATGTTGGAAGGAGTTCATACTCGAGTATGAACTCCTTCCAACATCGTTTTTG)
[2]
  steady state levels of TERC transcripts: increased
[3]
  TERC levels: restored the TERC levels
  knock-down of PAPD5: knocked-down PAPD5 to significant levels

## gRNA 451: guide RNA targeting PAPD5 for CRISPR/Cas9, SEQ ID NO: 88 (target + PAM), 89 (guide CCTCTTGTTGCTGCTGCCCG; listed as DNA, chemistry not given here)
[4]; PAPD5 gRNAs
  frequency of insertion/deletions (indels): highest frequency of indels
[4]; PARN mutant cells, qPCR, FIG. 21A
  PAPD5 transcript levels: reductions
[4]; PARN mutant cells, qPCR, FIG. 21B
  TERC RNA levels: increases

## PAPD5 shRNA2: lentivirus-encoded shRNA targeting human PAPD5, SEQ ID NO: 79 in Table 13 (CCGGGCCACATATAGAGATTGGATACTCGAGTATCCAATCTCTATATGTGGCTTTTTG)
[2]
  steady state levels of TERC transcripts: increased
[3]
  TERC levels: restored the TERC levels
  knock-down of PAPD5: knocked-down PAPD5 to significant levels

## PARN shRNA1: lentivirus-encoded shRNA directed against PARN (3' untranslated region), SEQ ID NO: 74 (DNA CCGGCCGCACTGTATTTAACTTAATCTCGAGATTAAGTTAAATACAGTGCGGTTTTTG)
[5]
  levels of mature TERC: diminished levels of mature TERC
  oligo(A) forms of TERC: increased oligo(A) forms

## CN[C@@H]1[C@H](O)[C@H](NC)[C@H]2O[C@@]3(O)C(=O)C[C@@H](C)O[C@H]3O[C@@H]2[C@H]1O.Cl.Cl.O.O.O.O.O [Spectinomycin dihydrochloride pentahydrate]
[1]
  inhibition of PAPD5: can inhibit PAPD5

## PARN gRNA 91: guide RNA targeting PARN for CRISPR/Cas9, SEQ ID NO: 94 (target + PAM), 95 (guide TGAAGTGTTAGGAGATACAT; listed as DNA, chemistry not given here)
[6]
  frequency of insertion/deletions (indels): high frequency of indels
[6]; qPCR, FIG. 20A
  PARN RNA transcript levels: reductions
[6]; qPCR, FIG. 20B
  TERC RNA levels: reductions

## NC[C@H]1O[C@H](O[C@H]2[C@H](O[C@@H]3O[C@H](CO)[C@@H](O)[C@H]3O)[C@@H](O)[C@H](N)C[C@@H]2N)[C@H](N)[C@@H](O)[C@@H]1O.O=S(=O)(O)O [Ribostamycin sulfate]
[1]
  inhibition of PAPD5: can inhibit PAPD5

## NC[C@H]1O[C@H](O[C@H]2[C@H](O)[C@@H](O[C@H]3O[C@H](CO)[C@@H](O)[C@H](N)[C@H]3O)[C@H](N)C[C@@H]2N)[C@H](N)[C@@H](O)[C@@H]1O.O=S(=O)(O)O [Kanamycin B sulfate]
[1]
  inhibition of PAPD5: can inhibit PAPD5
